Measurements as given in ChEMBL document CHEMBL1201862, “PubChem BioAssay data set” (2004).
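All cell lines were grown in 96-well plates and treated with compound for 48 hours. Here, GI50 denotes the concentration required for 50% inhibition of growth.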 Calls of active or inactive are those of the source. No stated cut-off is given here; in the data, active = GI50 up to about 1.1 µM and inactive = higher.

Tests used:
Assay in all cases: inhibition of tumour cell growth, NCI panel, 48 h
786-0 = test system: 786-0
A498 = test system: A498
A549 = test system: A549
ACHN = test system: ACHN
BT-549 = test system: BT-549
CAKI-1 = test system: CAKI-1
CCRF-CEM = test system: CCRF-CEM
COLO 205 = test system: COLO 205
DU-145 = test system: DU-145
EKVX = test system: EKVX
HCC 2998 = test system: HCC 2998
HCT-116 = test system: HCT-116
HCT-15 = test system: HCT-15
HOP-62 = test system: HOP-62
HOP-92 = test system: HOP-92
HT-29 = test system: HT-29
Hs-578T = test system: Hs-578T
IGROV-1 = test system: IGROV-1
K562 = test system: K562
KM12 = test system: KM12
LOX IMVI = test system: LOX IMVI
M14 = test system: M14
MCF7 = test system: MCF7
MDA-MB-231 = test system: MDA-MB-231
MDA-MB-435 = test system: MDA-MB-435
MDA-N = test system: MDA-N
MOLT-4 = test system: MOLT-4
Malme-3M = test system: Malme-3M
NCI-H226 = test system: NCI-H226
NCI-H23 = test system: NCI-H23
NCI-H460 = test system: NCI-H460
NCI-H522 = test system: NCI-H522
NCI/ADR-RES = test system: NCI/ADR-RES
OVCAR-3 = test system: OVCAR-3
OVCAR-4 = test system: OVCAR-4
OVCAR-5 = test system: OVCAR-5
OVCAR-8 = test system: OVCAR-8
PC-3 = test system: PC-3
RPMI-8226 = test system: RPMI-8226
RXF 393 = test system: RXF 393
SF-268 = test system: SF-268
SF-295 = test system: SF-295
SF-539 = test system: SF-539
SK-MEL-28 = test system: SK-MEL-28
SK-MEL-2 = test system: SK-MEL-2
SK-MEL-5 = test system: SK-MEL-5
SK-OV-3 = test system: SK-OV-3
SN12C = test system: SN12C
SNB-19 = test system: SNB-19
SNB-75 = test system: SNB-75
SR = test system: SR
SW-620 = test system: SW-620
T47D = test system: T47D
TK-10 = test system: TK-10
U-251 = test system: U-251
UACC-257 = test system: UACC-257
UACC-62 = test system: UACC-62
UO-31 = test system: UO-31
HL-60 = test system: HL-60

S=C1c2cc(Cl)ccc2N=C(NC2CCCC2)C2CSCN12 (stereo unspecified)
GI50 (786-0): > 100 µM (inactive)
GI50 (A498): > 100 µM (inactive)
GI50 (A549): > 84.9 µM (inactive)
GI50 (ACHN): > 100 µM (inactive)
GI50 (BT-549): > 100 µM (inactive)
GI50 (CAKI-1): > 100 µM (inactive)
GI50 (CCRF-CEM): > 69.5 µM (inactive)
GI50 (COLO 205): > 100 µM (inactive)
GI50 (DU-145): > 100 µM (inactive)
GI50 (EKVX): > 91 µM (inactive)
GI50 (HCC 2998): > 100 µM (inactive)
GI50 (HCT-116): > 74.5 µM (inactive)
GI50 (HCT-15): > 100 µM
GI50 (HOP-62): > 100 µM (inactive)
GI50 (HOP-92): 60.5 µM (inactive)
GI50 (HT-29): > 100 µM (inactive)
GI50 (Hs-578T): > 96.6 µM (inactive)
GI50 (IGROV-1): > 100 µM (inactive)
GI50 (K562): > 68.7 µM (inactive)
GI50 (KM12): > 41.4 µM (inactive)
GI50 (LOX IMVI): > 100 µM (inactive)
GI50 (M14): > 78 µM (inactive)
GI50 (MCF7): > 71.4 µM (inactive)
GI50 (MDA-MB-231): > 100 µM (inactive)
GI50 (MDA-MB-435): > 91.8 µM (inactive)
GI50 (MDA-N): 97.3 µM (inactive)
GI50 (MOLT-4): > 57.7 µM (inactive)
GI50 (Malme-3M): > 100 µM (inactive)
GI50 (NCI-H226): > 100 µM (inactive)
GI50 (NCI-H23): 62.5 µM (inactive)
GI50 (NCI-H460): > 100 µM (inactive)
GI50 (NCI-H522): > 100 µM (inactive)
GI50 (NCI/ADR-RES): 98.6 µM (inactive)
GI50 (OVCAR-3): > 68.7 µM (inactive)
GI50 (OVCAR-4): > 100 µM (inactive)
GI50 (OVCAR-5): > 100 µM (inactive)
GI50 (OVCAR-8): > 100 µM (inactive)
GI50 (PC-3): > 55.6 µM (inactive)
GI50 (RPMI-8226): > 63.8 µM (inactive)
GI50 (RXF 393): > 69.7 µM (inactive)
GI50 (SF-268): > 100 µM (inactive)
GI50 (SF-295): > 75.9 µM (inactive)
GI50 (SF-539): 89.9 µM (inactive)
GI50 (SK-MEL-28): > 100 µM (inactive)
GI50 (SK-MEL-2): > 76.6 µM (inactive)
GI50 (SK-MEL-5): > 100 µM (inactive)
GI50 (SK-OV-3): > 100 µM (inactive)
GI50 (SN12C): > 100 µM (inactive)
GI50 (SNB-19): > 100 µM (inactive)
GI50 (SNB-75): 99.3 µM (inactive)
GI50 (SR): > 60.1 µM (inactive)
GI50 (SW-620): > 85.3 µM (inactive)
GI50 (T47D): > 55 µM (inactive)
GI50 (TK-10): > 100 µM (inactive)
GI50 (U-251): > 100 µM (inactive)
GI50 (UACC-257): > 91.6 µM (inactive)
GI50 (UACC-62): > 92.9 µM (inactive)
GI50 (UO-31): > 100 µM (inactive)

O=C(c1cccs1)N(C(=S)OC12CC3CC(CC(C3)C1)C2)c1ccccc1
GI50 (786-0): 35.4 µM (inactive)
GI50 (A498): 33.2 µM (inactive)
GI50 (A549): 32.8 µM (inactive)
GI50 (ACHN): 33 µM (inactive)
GI50 (BT-549): 35.3 µM (inactive)
GI50 (CAKI-1): 28.3 µM (inactive)
GI50 (CCRF-CEM): 15.3 µM (inactive)
GI50 (COLO 205): 17.7 µM (inactive)
GI50 (DU-145): 84.7 µM (inactive)
GI50 (EKVX): 17.8 µM (inactive)
GI50 (HCC 2998): 32.6 µM (inactive)
GI50 (HCT-116): 22.2 µM (inactive)
GI50 (HCT-15): 29.8 µM
GI50 (HL-60): 25 µM (inactive)
GI50 (HOP-62): 47.6 µM (inactive)
GI50 (HOP-92): 24.8 µM (inactive)
GI50 (HT-29): 31.8 µM (inactive)
GI50 (Hs-578T): 32 µM (inactive)
GI50 (K562): 26.8 µM (inactive)
GI50 (KM12): 31.9 µM (inactive)
GI50 (LOX IMVI): 22.5 µM (inactive)
GI50 (M14): 19.2 µM (inactive)
GI50 (MCF7): 30.7 µM (inactive)
GI50 (MDA-MB-231): 30 µM (inactive)
GI50 (MDA-MB-435): 29.8 µM (inactive)
GI50 (MDA-N): 31.4 µM (inactive)
GI50 (MOLT-4): 26.1 µM (inactive)
GI50 (Malme-3M): 43.2 µM (inactive)
GI50 (NCI-H226): 33.3 µM (inactive)
GI50 (NCI-H23): 30.2 µM (inactive)
GI50 (NCI-H460): 33.3 µM (inactive)
GI50 (NCI-H522): 17.2 µM (inactive)
GI50 (NCI/ADR-RES): 29.6 µM (inactive)
GI50 (OVCAR-3): 34.6 µM (inactive)
GI50 (OVCAR-4): 35 µM (inactive)
GI50 (OVCAR-5): 29.4 µM (inactive)
GI50 (OVCAR-8): 31.8 µM (inactive)
GI50 (PC-3): 22.8 µM (inactive)
GI50 (RXF 393): 62.2 µM (inactive)
GI50 (SF-268): 37.6 µM (inactive)
GI50 (SF-295): 27.9 µM (inactive)
GI50 (SF-539): 34.5 µM (inactive)
GI50 (SK-MEL-28): 54.8 µM (inactive)
GI50 (SK-MEL-2): 18.2 µM (inactive)
GI50 (SK-MEL-5): 22.1 µM (inactive)
GI50 (SK-OV-3): 28.4 µM (inactive)
GI50 (SN12C): 27 µM (inactive)
GI50 (SNB-19): 33.7 µM (inactive)
GI50 (SNB-75): 85.7 µM (inactive)
GI50 (SR): 25.2 µM (inactive)
GI50 (SW-620): 40.7 µM (inactive)
GI50 (T47D): 76.7 µM (inactive)
GI50 (TK-10): 44 µM (inactive)
GI50 (U-251): 29.1 µM (inactive)
GI50 (UACC-257): 39.5 µM (inactive)
GI50 (UACC-62): 25.6 µM (inactive)
GI50 (UO-31): 18.7 µM (inactive)

COC(=O)[C@H](Cc1ccccc1)NC(=O)CCCCCCC(=O)NO
GI50 (786-0): 28.6 µM (inactive)
GI50 (A549): 44.5 µM (inactive)
GI50 (ACHN): > 100 µM (inactive)
GI50 (BT-549): > 100 µM (inactive)
GI50 (CAKI-1): 28.3 µM (inactive)
GI50 (CCRF-CEM): 2.67 µM (inactive)
GI50 (COLO 205): 54.5 µM (inactive)
GI50 (DU-145): 7.23 µM (inactive)
GI50 (EKVX): > 100 µM (inactive)
GI50 (HCC 2998): 16.1 µM (inactive)
GI50 (HCT-116): 5.15 µM (inactive)
GI50 (HCT-15): 56.4 µM
GI50 (HL-60): 6.01 µM (inactive)
GI50 (HOP-92): 17.3 µM (inactive)
GI50 (HT-29): 17.6 µM (inactive)
GI50 (Hs-578T): 12.6 µM (inactive)
GI50 (IGROV-1): 17.7 µM (inactive)
GI50 (K562): 6.53 µM (inactive)
GI50 (KM12): 28.8 µM (inactive)
GI50 (LOX IMVI): 15.4 µM (inactive)
GI50 (M14): 20.9 µM (inactive)
GI50 (MCF7): 46.1 µM (inactive)
GI50 (MDA-MB-231): 21.6 µM (inactive)
GI50 (MDA-MB-435): 13.5 µM (inactive)
GI50 (MDA-N): 19 µM (inactive)
GI50 (MOLT-4): 2.7 µM (inactive)
GI50 (Malme-3M): 2.65 µM (inactive)
GI50 (NCI-H226): 75.3 µM (inactive)
GI50 (NCI-H23): 26.4 µM (inactive)
GI50 (NCI-H460): 12.3 µM (inactive)
GI50 (NCI-H522): 4.68 µM (inactive)
GI50 (NCI/ADR-RES): 23.1 µM (inactive)
GI50 (OVCAR-3): 10.7 µM (inactive)
GI50 (OVCAR-4): 39.8 µM (inactive)
GI50 (OVCAR-5): 4.18 µM (inactive)
GI50 (OVCAR-8): 5.28 µM (inactive)
GI50 (PC-3): 8.79 µM (inactive)
GI50 (RPMI-8226): 4.62 µM (inactive)
GI50 (RXF 393): 5.05 µM (inactive)
GI50 (SF-268): 12.3 µM (inactive)
GI50 (SF-295): 10.7 µM (inactive)
GI50 (SF-539): 20.6 µM (inactive)
GI50 (SK-MEL-28): > 100 µM (inactive)
GI50 (SK-MEL-2): 4.6 µM (inactive)
GI50 (SK-MEL-5): 8.91 µM (inactive)
GI50 (SK-OV-3): 15.2 µM (inactive)
GI50 (SN12C): > 100 µM (inactive)
GI50 (SNB-19): > 100 µM (inactive)
GI50 (SR): 4.89 µM (inactive)
GI50 (SW-620): 11.6 µM (inactive)
GI50 (T47D): 0.605 µM (active)
GI50 (TK-10): 13.8 µM (inactive)
GI50 (U-251): 17.3 µM (inactive)
GI50 (UACC-257): 10.1 µM (inactive)
GI50 (UACC-62): 11.5 µM (inactive)
GI50 (UO-31): 33.4 µM (inactive)
